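A five-concentration, 48-hour dose response in 96-well plates underlies each endpoint, interpolated linearly between surrounding concentrations. GI50 is the concentration that inhibits growth by half.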 The source made the active and inactive calls. No stated cut-off is given here; in the data, active = GI50 up to about 1.1 µM and inactive = higher.
How the values were obtained:
Assay in all cases: inhibition of tumour cell growth, NCI panel, 48 h
786-0 = tested on: 786-0
EKVX = tested on: EKVX
HOP-92 = tested on: HOP-92
IGROV-1 = tested on: IGROV-1
K562 = tested on: K562
M14 = tested on: M14
MCF7 = tested on: MCF7
OVCAR-8 = tested on: OVCAR-8
RPMI-8226 = tested on: RPMI-8226
SF-539 = tested on: SF-539
SK-MEL-28 = tested on: SK-MEL-28
SK-OV-3 = tested on: SK-OV-3
SNB-75 = tested on: SNB-75
SW-620 = tested on: SW-620
TK-10 = tested on: TK-10
UACC-62 = tested on: UACC-62
MDA-MB-231 = tested on: MDA-MB-231
RXF 393 = tested on: RXF 393
SF-295 = tested on: SF-295
COLO 205 = tested on: COLO 205

Measured: GI50

CC1C2=C(O)CC(C)(C)CC2=NC2=C1C(=O)CC(C)(C)C2 (configuration not stated)
inactive: 786-0 > 100 µM | EKVX > 100 µM | HOP-92 > 100 µM | IGROV-1 > 100 µM | K562 91.8 µM | M14 > 100 µM | MCF7 > 100 µM | OVCAR-8 > 100 µM | RPMI-8226 > 100 µM | SF-539 > 100 µM | SK-MEL-28 > 100 µM | SK-OV-3 > 100 µM | SNB-75 83 µM | SW-620 > 100 µM | TK-10 > 100 µM | UACC-62 > 100 µM

COc1ccc2nccc(SCC(=O)O)c2c1
inactive: 786-0 > 100 µM | EKVX > 100 µM | HOP-92 > 100 µM | IGROV-1 > 100 µM | K562 > 100 µM | M14 > 100 µM | MDA-MB-231 > 100 µM | OVCAR-8 > 100 µM | RPMI-8226 > 100 µM | RXF 393 > 100 µM | SF-295 > 100 µM | SK-MEL-28 > 100 µM | SW-620 > 100 µM | TK-10 > 100 µM | UACC-62 > 100 µM

O=C(NCCNCCO)N/N=C/c1ccc([N+](=O)[O-])cc1
inactive: 786-0 > 100 µM | COLO 205 > 100 µM | IGROV-1 > 100 µM | K562 > 100 µM | M14 > 100 µM | MCF7 48.9 µM | MDA-MB-231 > 100 µM | OVCAR-8 > 100 µM | SF-295 > 100 µM | SF-539 > 100 µM | SK-MEL-28 > 100 µM | SK-OV-3 > 100 µM | SNB-75 21.7 µM | SW-620 > 100 µM | TK-10 90.8 µM | UACC-62 > 100 µM

CN(C)CCNC(=O)c1cccc2c(NC(CCCNC(=N)N)C(=O)O)c3ccccc3nc12 (configuration not stated)
inactive: 786-0 7.52 µM | COLO 205 6.22 µM | EKVX 3.48 µM | HOP-92 3.85 µM | IGROV-1 4.59 µM | K562 5.68 µM | M14 14 µM | MCF7 5.27 µM | MDA-MB-231 9.27 µM | OVCAR-8 4.13 µM | RPMI-8226 6.59 µM | SF-295 7.57 µM | SK-MEL-28 25.7 µM | SK-OV-3 12.6 µM | SNB-75 8.83 µM | SW-620 5.4 µM | TK-10 21.1 µM | UACC-62 15.8 µM

NC(=S)NS(=O)(=O)c1ccc(F)cc1
inactive: 786-0 > 100 µM | COLO 205 > 100 µM | EKVX > 100 µM | HOP-92 > 100 µM | IGROV-1 > 100 µM | K562 > 100 µM | M14 > 100 µM | MDA-MB-231 > 100 µM | OVCAR-8 > 100 µM | RPMI-8226 > 100 µM | RXF 393 > 100 µM | SF-295 > 100 µM | SF-539 > 100 µM | SK-MEL-28 > 100 µM | SK-OV-3 > 100 µM | SNB-75 > 100 µM | SW-620 > 100 µM | TK-10 > 100 µM | UACC-62 > 100 µM

CCCCC(C(=O)C(=O)NC1C2CC3CC(C2)CC1C3)C(=O)C(C)C (configuration not stated)
inactive: 786-0 > 100 µM | COLO 205 > 100 µM | EKVX > 100 µM | HOP-92 > 100 µM | IGROV-1 > 100 µM | K562 > 100 µM | M14 > 100 µM | OVCAR-8 > 100 µM | RPMI-8226 > 100 µM | RXF 393 > 100 µM | SF-295 > 100 µM | SF-539 > 100 µM | SK-MEL-28 > 100 µM | SK-OV-3 > 100 µM | SNB-75 > 100 µM | SW-620 > 100 µM | TK-10 > 100 µM | UACC-62 > 100 µM

COC1=N[C@H](C(C)C)C(OC)=N[C@H]1Cc1ccc(C[C@@H]2N=C(OC)[C@@H](C(C)C)N=C2OC)s1
inactive: 786-0 45.6 µM | COLO 205 22.1 µM | EKVX 24.8 µM | HOP-92 > 100 µM | IGROV-1 > 100 µM | K562 32.4 µM | M14 36 µM | MCF7 20.3 µM | MDA-MB-231 27.6 µM | OVCAR-8 76.9 µM | SF-295 38.2 µM | SF-539 > 100 µM | SK-MEL-28 34.7 µM | SK-OV-3 > 100 µM | SNB-75 > 100 µM | SW-620 39.9 µM | TK-10 > 100 µM | UACC-62 45.1 µM

CC(C)(C)OC(=O)N[C@@H](Cc1ccccc1)C(=O)N1CC[C@@H](C(=O)N2[C@H]3CC4CC[C@@]3(CS2(=O)=O)C4(C)C)N1
inactive: 786-0 > 100 µM | COLO 205 46.9 µM | HOP-92 > 100 µM | K562 > 100 µM | M14 74 µM | MDA-MB-231 48 µM | OVCAR-8 59.3 µM | RPMI-8226 82.6 µM | RXF 393 > 100 µM | SK-MEL-28 > 100 µM | SK-OV-3 > 100 µM | SNB-75 39.9 µM | SW-620 62.8 µM | UACC-62 52.4 µM

CCSC12OC3(CCCCCN3C1=O)C1C(=O)N(c3ccccc3)C(=O)C12 (configuration not stated)
inactive: 786-0 > 100 µM | COLO 205 > 100 µM | EKVX > 100 µM | HOP-92 > 100 µM | IGROV-1 > 100 µM | K562 > 100 µM | M14 > 100 µM | MDA-MB-231 > 100 µM | OVCAR-8 > 100 µM | RXF 393 > 100 µM | SF-295 > 100 µM | SF-539 > 100 µM | SK-MEL-28 > 100 µM | SK-OV-3 > 100 µM | SNB-75 > 100 µM | SW-620 > 100 µM | TK-10 > 100 µM | UACC-62 > 100 µM

N#CC(C(=O)c1ccccc1F)c1nc2cc(C(F)(F)F)ccc2s1 (configuration not stated)
inactive: 786-0 19.6 µM | COLO 205 20.9 µM | EKVX 22.4 µM | HOP-92 19.1 µM | IGROV-1 36.3 µM | MDA-MB-231 31 µM | OVCAR-8 31.6 µM | RPMI-8226 22 µM | RXF 393 24 µM | SF-295 14.3 µM | SF-539 33.4 µM | SK-MEL-28 29.4 µM | SK-OV-3 27 µM | SNB-75 14.6 µM | SW-620 30.6 µM | TK-10 30.8 µM

CCN(CC)C(=S)SNCc1ccc(S(N)(=O)=O)cc1
inactive: 786-0 14.3 µM | COLO 205 14.6 µM | EKVX 20.9 µM | HOP-92 22.5 µM | IGROV-1 13.1 µM | K562 > 100 µM | M14 10.7 µM | MDA-MB-231 18.1 µM | OVCAR-8 14.4 µM | RPMI-8226 2.93 µM | RXF 393 18.1 µM | SF-295 9.06 µM | SF-539 14.5 µM | SK-MEL-28 18.2 µM | SK-OV-3 40.1 µM | SNB-75 18.5 µM | SW-620 20 µM | TK-10 25 µM | UACC-62 24.9 µM

Source: ChEMBL document CHEMBL1201862, “PubChem BioAssay data set” (2004)
